Results as given in US11420970B1 (NOVARTIS AG, priority 2019, dated 2022).
Like-named read-outs stand apart in the source and are kept apart here.

Key:
[1] = biological target: NSD2 [1-1365] (Homo sapiens (Human), UniProt O96028); experiment: LC-MS/MS-based NSD2 enzymatic assay (SAH production); format: biochemical; conditions: read-out: NSD2 IC50
In short: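 SAH formed was measured by LC-MS/MS using d4-SAH as internal standard and an SAH calibration curve. Compounds were preincubated 20 min with NSD2 [1-1365] and SAM; mouse-liver nucleosome then started a 90 min room-temperature reaction (8 nM enzyme, 1 μM SAM, 400 nM nucleosome final, pH 8.0), stopped with TFA.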

[2] = tested on: cellular H3K36me2 level in multiple myeloma cell line KMS11 (t(4;14)+); experiment: H3K36me2 cellular ELISA assay in KMS11-Par line; format: cell-based; conditions: Homo sapiens, KMS-11, ELISA, read-out: H3K36me2 ELISA in KMS11-Par
Description: H3K36Me2 Cellular ELISA Assay in KMS11-Par Line
An ELISA (enzyme-linked immunosorbent assay) based assay was used to test the ability of candidate compound to reduce cellular H3K36me2 level in multiple myeloma cell line KMS11 (t(4;14)+). KMS11 (Horizon Discovery Ltd.) cells are maintained in RPM11640 media with 12.5% FBS and 50 U/ml Penicillin-Streptomycin. For assay compound treatment, single cell suspension was prepared in Opti-MEM supplemented with B-27 and N2 supplement (Invitrogen 11058-021, 17504-044, 17502-048) for ELISA and in maintenance media for cellTiter Glo (CTG) viability assay. One day prior to cell treatment, 1,250 KMS11 cells were seeded into 384-well Greiner CellStar TC plate (Greiner #781086) at the final volume of 30 μL/well.
Cells were treated with tested compounds at the desired concentration for 72 hours. Crude histone lysate was extracted by 0.4M HCl following neutralization by 0.5M Sodium phosphate, dibasic (Na2HPO4), pH ˜12.5. Equal amount of histone lysate was loaded to Corning 384-well high biding plate (Corning #3577, black) for H3K36m2 and to Thermo 384-well high binding Nunc plate (Thermo #460372, white) for total H3.
Histone bound plates were washed and blocked with 5% BSA. […] The abundance of H3K36me2 and total H3 was measured by Chemiluminesce on a plate reader. Cell viability was monitored on a parallel seeded plate with CellTiter-Glo reagent (Promega #G7573).

[3] = NSD2 biochemical activity, class symbols
[4] = KMS11-Par line (t(4;14)+), 72 hours treatment

Sequence of NSD2 [1-1365] (O96028 whole entry): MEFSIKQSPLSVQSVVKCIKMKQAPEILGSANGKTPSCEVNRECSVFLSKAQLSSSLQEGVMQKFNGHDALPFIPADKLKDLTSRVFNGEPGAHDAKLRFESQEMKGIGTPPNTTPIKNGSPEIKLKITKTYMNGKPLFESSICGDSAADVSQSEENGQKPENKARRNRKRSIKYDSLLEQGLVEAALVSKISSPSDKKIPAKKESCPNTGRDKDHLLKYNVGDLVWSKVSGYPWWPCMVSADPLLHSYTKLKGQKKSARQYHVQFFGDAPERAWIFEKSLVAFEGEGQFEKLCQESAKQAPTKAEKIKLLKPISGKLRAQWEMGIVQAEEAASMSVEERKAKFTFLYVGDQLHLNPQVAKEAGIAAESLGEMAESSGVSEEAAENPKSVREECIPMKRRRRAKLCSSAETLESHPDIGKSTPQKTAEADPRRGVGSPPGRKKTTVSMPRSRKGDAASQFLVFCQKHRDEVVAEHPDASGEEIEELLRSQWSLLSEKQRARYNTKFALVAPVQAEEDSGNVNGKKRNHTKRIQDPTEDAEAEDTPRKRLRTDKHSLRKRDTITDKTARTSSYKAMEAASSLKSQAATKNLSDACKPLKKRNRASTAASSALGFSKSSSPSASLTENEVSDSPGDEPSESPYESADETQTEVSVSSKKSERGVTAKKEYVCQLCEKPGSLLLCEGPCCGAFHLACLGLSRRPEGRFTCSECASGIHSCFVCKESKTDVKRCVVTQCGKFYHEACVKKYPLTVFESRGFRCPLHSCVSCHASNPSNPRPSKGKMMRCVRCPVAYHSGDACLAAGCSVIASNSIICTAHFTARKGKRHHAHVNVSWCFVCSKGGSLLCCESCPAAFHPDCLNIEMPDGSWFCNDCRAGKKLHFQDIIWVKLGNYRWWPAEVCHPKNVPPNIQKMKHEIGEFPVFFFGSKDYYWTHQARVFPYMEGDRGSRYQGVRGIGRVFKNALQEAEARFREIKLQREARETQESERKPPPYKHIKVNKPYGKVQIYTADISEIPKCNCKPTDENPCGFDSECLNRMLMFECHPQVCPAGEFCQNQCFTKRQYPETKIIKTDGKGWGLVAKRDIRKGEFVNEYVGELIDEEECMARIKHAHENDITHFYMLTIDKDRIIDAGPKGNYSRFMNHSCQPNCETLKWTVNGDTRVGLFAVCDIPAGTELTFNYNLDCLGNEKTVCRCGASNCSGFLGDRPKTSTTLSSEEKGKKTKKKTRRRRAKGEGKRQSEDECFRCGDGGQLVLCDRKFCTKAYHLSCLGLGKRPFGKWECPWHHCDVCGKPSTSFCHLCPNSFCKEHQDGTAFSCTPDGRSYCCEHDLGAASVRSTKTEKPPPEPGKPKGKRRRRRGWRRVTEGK

Structure (SMILES)	IC50 [1, 3] [nM]	IC50 [2, 4] [nM]	IC50 [1] [nM]	IC50 ([2]; KMS11-Par line, 72 hours) [nM]
Nc1ncnc2c1ncn2Cc1cc(-c2ccc(NC(=O)CCBr)cc2)ncc1N1CCCC(N)(CC(F)F)C1 (stereo not drawn) [Example 64, N-(4-(5-(3-amino-3-(2,2-difluoroethyl)piperidin-1-yl)-4-((6-amino-9H-purin-9-yl)methyl)pyridin-2-yl)phenyl)-3-bromopropanamide]	10 to 1000	7000	–	–
C[C@@H](c1ccccn1)[C@@]1(N)CCCN(c2cnc(-c3ccc(F)c(F)c3)cc2Cn2cnc3c(N)ncnc32)C1 [Example 65, 9-((5-((S)-3-amino-3-((R)-1-(pyridin-2-yl)ethyl)piperidin-1-yl)-2-(3,4-difluorophenyl)pyridin-4-yl)methyl)-9H-purin-6-amine]	10 to 1000	1130	–	–
Nc1ncnc2c1ncn2Cc1cc(-c2ccc(F)c(F)c2)ncc1N1CCCC(N)(Cc2cccc(F)n2)C1 (stereo not drawn) [Example 69, 9-((5-(3-amino-3-((6-fluoropyridin-2-yl)methyl)piperidin-1-yl)-2-(3,4-difluorophenyl)pyridin-4-yl)methyl)-9H-purin-6-amine]	10 to 1000	1150	–	–
Nc1ncnc2c1ncn2Cc1cc(-c2ccc(F)c(F)c2)ncc1N1CCC[C@](N)(Cc2cnccn2)C1 [Example 74, (S)-9-((5-(3-amino-3-(pyrazin-2-ylmethyl)piperidin-1-yl)-2-(3,4-difluorophenyl)pyridin-4-yl)methyl)-9H-purin-6-amine]	10 to 1000	4220	–	–
C=CC(=O)Nc1ccc(-c2cc(Cn3cnc4c(N)ncnc43)c(N3CCCC(N)(CC(F)F)C3)cn2)cc1 (stereo not drawn) [Example 76, N-(4-(5-(3-amino-3-(2,2-difluoroethyl)piperidin-1-yl)-4-((6-amino-9H-purin-9-yl)methyl)pyridin-2-yl)phenyl)acrylamide]	10 to 1000	2120	–	–
CCO[C@H](C)C1(N)CCCN(c2cnc(-c3ccc(F)c(F)c3)cc2Cn2cnc3c(N)ncnc32)C1 (stereo partly drawn) [Example 99, 9-((5-(3-amino-3-((R)-1-ethoxyethyl)piperidin-1-yl)-2-(3,4-difluorophenyl)pyridin-4-yl)methyl)-9H-purin-6-amine]	10 to 1000	21000	–	–
Cc1cc2c(cnn2C)cc1-c1cc(Cn2cnc3c(N)ncnc32)c(N2CCC[C@](N)([C@@H](O)C(F)F)C2)cn1 [Example 136, (R)-1-((R)-3-amino-1-(4-((6-amino-9H-purin-9-yl)methyl)-6-(1,6-dimethyl-1H-indazol-5-yl)pyridin-3-yl)piperidin-3-yl)-2,2-difluoroethan-1-ol]	10 to 1000	8800	–	–
Cc1cccc(C2(N)CCCN(c3cnc(-c4ccc(F)c(F)c4)cc3Cn3cnc4c(N)ncnc43)C2)n1 (stereo not drawn) [Example 177, 9-((5-(3-amino-3-(6-methylpyridin-2-yl)piperidin-1-yl)-2-(3,4-difluorophenyl)pyridin-4-yl)methyl)-9H-purin-6-amine]	–	–	1 to 10	407
Nc1ncnc2c1ncn2Cc1cc(-c2ccc(F)c(F)c2)ncc1N1CCC[C@](N)(c2ncccc2F)C1 [Example 199, (R)-9-((5-(3-amino-3-(3-fluoropyridin-2-yl)piperidin-1-yl)-2-(3,4-difluorophenyl)pyridin-4-yl)methyl)-9H-purin-6-amine]	–	–	1 to 10	846
CCc1cccc([C@@]2(N)CCCN(c3cnc(-c4ccc(F)cc4)cc3Cn3cnc4c(N)ncnc43)C2)n1 [Example 202, (R)-9-((5-(3-amino-3-(6-ethylpyridin-2-yl)piperidin-1-yl)-2-(4-fluorophenyl)pyridin-4-yl)methyl)-9H-purin-6-amine]	–	–	1 to 10	264
Nc1ncnc2c1ncn2Cc1cc(-c2ccc(F)cc2)ncc1N1CCC[C@](N)(c2cccc(C(F)F)n2)C1 [Example 203, (R)-9-((5-(3-amino-3-(6-(difluoromethyl)pyridin-2-yl)piperidin-1-yl)-2-(4-fluorophenyl)pyridin-4-yl)methyl)-9H-purin-6-amine]	–	–	1 to 10	389
Nc1ncnc2c1ncn2Cc1cc(-c2ccc(F)cc2)ncc1N1CCCC(N)(c2cccc(Cl)n2)C1 (stereo not drawn) [Example 205, 9-((5-(3-amino-3-(6-chloropyridin-2-yl)piperidin-1-yl)-2-(4-fluorophenyl)pyridin-4-yl)methyl)-9H-purin-6-amine]	–	–	1 to 10	632
Nc1ncnc2c1ncn2Cc1cc(-c2ccc(F)c(F)c2)ncc1N1CCC[C@](N)(c2ccncc2)C1 [Example 245, (S)-9-((5-(3-amino-3-(pyridin-4-yl)piperidin-1-yl)-2-(3,4-difluorophenyl)pyridin-4-yl)methyl)-9H-purin-6-amine]	–	–	10 to 1000	2150
Nc1ncnc2c1ncn2Cc1cc(-c2ccc(F)c(F)c2)ncc1N1CCC[C@](N)(c2ccnc(Cl)c2)C1 [Example 246, (S)-9-((5-(3-amino-3-(2-chloropyridin-4-yl)piperidin-1-yl)-2-(3,4-difluorophenyl)pyridin-4-yl)methyl)-9H-purin-6-amine]	–	–	10 to 1000	16700

Second part, the compound after the results:

IC50 [1, 3] [nM]	IC50 [2, 4] [nM]	IC50 [1] [nM]	IC50 ([2]; KMS11-Par line, 72 hours) [nM]	Structure (SMILES)
–	–	10 to 1000	33300	Cc1cc([C@@]2(N)CCCN(c3cnc(-c4ccc(F)c(F)c4)cc3Cn3cnc4c(N)ncnc43)C2)ccn1 [Example 247, (S)-9-((5-(3-amino-3-(2-methylpyridin-4-yl)piperidin-1-yl)-2-(3,4-difluorophenyl)pyridin-4-yl)methyl)-9H-purin-6-amine]
–	–	10 to 1000	2880	Nc1ncnc2c1ncn2Cc1cc(-c2ccc(F)c(F)c2)ncc1N1CCC[C@](N)(c2ccncc2F)C1 [Example 248, (S)-9-((5-(3-amino-3-(3-fluoropyridin-4-yl)piperidin-1-yl)-2-(3,4-difluorophenyl)pyridin-4-yl)methyl)-9H-purin-6-amine]
–	–	10 to 1000	7250	CCc1cccc([C@@]2(N)CCCN(c3cnc(C4CC4)cc3Cn3cnc4c(N)nccc43)C2)n1 [Example 252, (R)-1-((5-(3-amino-3-(6-ethylpyridin-2-yl)piperidin-1-yl)-2-cyclopropylpyridin-4-yl)methyl)-1H-imidazo[4,5-c]pyridin-4-amine]
–	–	10 to 1000	1540	Nc1ncnc2c1ncn2Cc1cc(-c2ccc(F)c(F)c2)ncc1N1CCCC(N)(c2cncc(Cl)n2)C1 (stereo not drawn) [Example 254, 9-((5-(3-amino-3-(6-chloropyrazin-2-yl)piperidin-1-yl)-2-(3,4-difluorophenyl)pyridin-4-yl)methyl)-9H-purin-6-amine]
–	–	10 to 1000	3540	Nc1ncnc2c1ncn2Cc1cc(-c2ccc(F)c(F)c2)ncc1N1CCCC(N)(c2cnccn2)C1 (stereo not drawn) [Example 259, 9-((5-(3-amino-3-(pyrazin-2-yl)piperidin-1-yl)-2-(3,4-difluorophenyl)pyridin-4-yl)methyl)-9H-purin-6-amine]
–	–	10 to 1000	1520	Nc1nccc2c1ncn2Cc1cc(-c2ccc(F)c(F)c2)ncc1N1CCC[C@](N)(c2cccc(C(F)F)n2)C1 [Example 260, (R)-1-((5-(3-amino-3-(6-(difluoromethyl)pyridin-2-yl)piperidin-1-yl)-2-(3,4-difluorophenyl)pyridin-4-yl)methyl)-1H-imidazo[4,5-c]pyridin-4-amine]
–	–	1 to 10	235	Cc1cccc([C@@]2(N)CCCN(c3cnc(-c4ccc(F)cc4)cc3Cn3cnc4c(N)nccc43)C2)n1 [Example 261, (R)-1-((5-(3-amino-3-(6-methylpyridin-2-yl)piperidin-1-yl)-2-(4-fluorophenyl)pyridin-4-yl)methyl)-1H-imidazo[4,5-c]pyridin-4-amine]
–	–	10 to 1000	1330	Nc1nccc2c1ncn2Cc1cc(-c2ccc(F)c(F)c2)ncc1N1CCCC(N)(c2cccc(F)n2)C1 (stereo not drawn) [Example 262, 1-((5-(3-amino-3-(6-fluoropyridin-2-yl)piperidin-1-yl)-2-(3,4-difluorophenyl)pyridin-4-yl)methyl)-1H-imidazo[4,5-c]pyridin-4-amine]
–	–	10 to 1000	4170	Cc1cccc(C2(N)CCCN(c3cnc(C4CC4)cc3Cn3cnc4c(N)nccc43)C2)n1 (stereo not drawn) [Example 263, 1-((5-(3-amino-3-(6-methylpyridin-2-yl)piperidin-1-yl)-2-cyclopropylpyridin-4-yl)methyl)-1H-imidazo[4,5-c]pyridin-4-amine]
–	–	10 to 1000	9630	Nc1nccc2c1ncn2Cc1cc(C2CC2)ncc1N1CCC[C@](N)(c2cccc(C(F)F)n2)C1 [Example 264, (R)-1-((5-(3-amino-3-(6-(difluoromethyl)pyridin-2-yl)piperidin-1-yl)-2-cyclopropylpyridin-4-yl)methyl)-1H-imidazo[4,5-c]pyridin-4-amine]
